From ChEMBL document CHEMBL1201862, “PubChem BioAssay data set” (2004)
Where “and” joins values, the source holds several entries; their conditions need not be identical. Identical values can stand only once.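 Dose response: 5 concentrations. Exposure: 48 h. Format: 96-well plates. Endpoint: linear interpolation; highest concentration if not reached. The concentration for 50% growth inhibition is given as GI50.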 Calls of active or inactive are those of the source. Rule as the data show it: active = GI50 up to about 1.1 µM and inactive = higher.

How the values were obtained:
Assay in all cases: NCI tumour cell line growth inhibition, 48 h
786-0 = tested on: 786-0
A498 = tested on: A498
A549 = tested on: A549
ACHN = tested on: ACHN
CCRF-CEM = tested on: CCRF-CEM
HL-60 = tested on: HL-60
Hs-578T = tested on: Hs-578T
M14 = tested on: M14
MCF7 = tested on: MCF7
MDA-N = tested on: MDA-N
NCI-H23 = tested on: NCI-H23
NCI-H460 = tested on: NCI-H460
NCI-H522 = tested on: NCI-H522
NCI/ADR-RES = tested on: NCI/ADR-RES
PC-3 = tested on: PC-3
RPMI-8226 = tested on: RPMI-8226
SK-MEL-2 = tested on: SK-MEL-2
SNB-19 = tested on: SNB-19
UACC-257 = tested on: UACC-257
MDA-MB-231 = tested on: MDA-MB-231

SMILES	GI50 (786-0)	GI50 (A498)	GI50 (A549)	GI50 (ACHN)	GI50 (CCRF-CEM)	GI50 (HL-60)	GI50 (Hs-578T)	GI50 (M14)	GI50 (MCF7)	GI50 (MDA-N)	GI50 (NCI-H23)	GI50 (NCI-H460)	GI50 (NCI-H522)	GI50 (NCI/ADR-RES)	GI50 (PC-3)	GI50 (RPMI-8226)	GI50 (SK-MEL-2)	GI50 (SNB-19)	GI50 (UACC-257)	GI50 (MDA-MB-231)
COc1ccc(C2=NN(C(=N)S)C(c3ccccc3)C2)cc1 (stereo not drawn)	38.3 µM (inactive)	22.8 µM (inactive)	34.8 µM (inactive)	36.9 µM (inactive)	33.2 µM (inactive)	18.2 µM (inactive)	75.7 µM (inactive)	41 µM (inactive)	22.5 µM (inactive)	27.9 µM (inactive)	34 µM (inactive)	30 µM (inactive)	25.5 µM (inactive)	34.5 µM (inactive)	34 µM (inactive)	23.6 µM (inactive)	29.4 µM (inactive)	51.8 µM (inactive)	29.2 µM (inactive)	
CCOC(=O)c1cnc2oc3ccc(O)cc3c2c1-c1ccccc1	58.3 µM (inactive)	> 100 µM (inactive)	32.4 µM (inactive)	20.9 µM (inactive)	16.4 µM (inactive)	14.6 µM (inactive)	20.6 µM (inactive)	81.3 µM (inactive)	44.7 µM (inactive)	52.7 µM (inactive)	32.7 µM (inactive)	13.2 µM (inactive)			18 µM (inactive)	8.73 µM (inactive)	15.1 µM (inactive)	52.4 µM (inactive)	> 100 µM (inactive)	16.8 µM (inactive)
COc1ccc(-c2c(C#N)c(N)n(C3OCC(OC(C)=O)C(OC(C)=O)C3OC(C)=O)c(=S)c2C#N)cc1 (stereo not drawn)	42.4 µM (inactive) and 36.8 µM (inactive)	32.7 µM (inactive) and 28.2 µM (inactive)	99.5 µM (inactive) and 65.3 µM (inactive)	48.9 µM (inactive) and 40.6 µM (inactive)	16.4 µM (inactive) and 31 µM (inactive)	17.4 µM (inactive) and 15.2 µM (inactive)		53 µM (inactive) and 49.3 µM (inactive)	27.5 µM (inactive) and 49.3 µM (inactive)	43 µM (inactive) and 51.2 µM (inactive)	> 100 µM (inactive)	44.1 µM (inactive) and 36.4 µM (inactive)	38.8 µM (inactive) and 53.3 µM (inactive)	> 100 µM (inactive)	32.9 µM (inactive) and 34.4 µM (inactive)	25.9 µM (inactive) and 26.4 µM (inactive)	22.3 µM (inactive) and 40.7 µM (inactive)	> 100 µM (inactive)	> 100 µM (inactive)	41.7 µM (inactive) and 33 µM (inactive)
c1cncc(C2(c3cc4ccccc4[nH]3)COCO2)c1 (stereo not drawn)	> 100 µM (inactive)		94.2 µM (inactive)	77.3 µM (inactive)	10.5 µM (inactive)	32.7 µM (inactive)	> 100 µM (inactive)	> 100 µM (inactive)	> 100 µM (inactive)		> 100 µM (inactive)	> 100 µM (inactive)		> 100 µM (inactive)	94.2 µM (inactive)	> 100 µM (inactive)	> 100 µM (inactive)	> 100 µM (inactive)	> 100 µM (inactive)	> 100 µM (inactive)
CCOC(=O)CC(=O)N(c1ccc(OC)cc1)C(C(=O)OC)c1ccccc1 (stereo not drawn)	> 100 µM (inactive)		> 100 µM (inactive)	> 100 µM (inactive)	> 100 µM (inactive)		> 100 µM (inactive)	> 100 µM (inactive)	> 100 µM (inactive)	> 100 µM (inactive)	> 100 µM (inactive)	> 100 µM (inactive)	> 100 µM (inactive)	> 100 µM (inactive)	> 100 µM (inactive)	> 100 µM (inactive)	> 100 µM (inactive)	> 100 µM (inactive)	> 100 µM (inactive)	
C=C(C)[C@@H]1CC[C@]2(COC(C)=O)CC[C@]3(C)[C@H](CC[C@@H]4[C@@]5(C)CC[C@H](OC(C)=O)C(C)(C)[C@@H]5CC[C@]43C)[C@@H]12 [BETULIN DIACETATE]	> 50 µM (inactive)	> 50 µM (inactive)	> 50 µM (inactive)	> 50 µM (inactive)	> 50 µM (inactive)	> 33.1 µM (inactive)	> 50 µM (inactive)	> 50 µM (inactive)		> 50 µM (inactive)	> 50 µM (inactive)		> 50 µM (inactive)	> 50 µM (inactive)	> 50 µM (inactive)	> 50 µM (inactive)	> 50 µM (inactive)	> 50 µM (inactive)	> 50 µM (inactive)	
CCOc1ccc2c(ccc(/C=C/c3cc(C)c4cccnc4c3O)[n+]2C)c1	0.53 µM (active)	1.67 µM (inactive)	1.33 µM (inactive)	1.4 µM (inactive)	0.0673 µM (active)	0.141 µM (active)	6.82 µM (inactive)	0.836 µM (active)	0.115 µM (active)		1.08 µM (active)	0.281 µM (active)	0.583 µM (active)	41.6 µM (inactive)	0.773 µM (active)	0.818 µM (active)	0.498 µM (active)	0.594 µM (active)	0.933 µM (active)	0.157 µM (active)
COc1ccc2nc3ccccc3c(NCCCCN(CCCl)CCCl)c2c1	0.0436 µM (active)	0.109 µM (active)	0.162 µM (active)	0.041 µM (active)	0.01 µM (active)	0.0186 µM (active)	2 µM (inactive)	0.22 µM (active)	0.202 µM (active)		0.147 µM (active)	< 0.0352 µM (active)	0.02 µM (active)	0.448 µM (active)	0.316 µM (active)	< 0.0476 µM (active)	0.703 µM (active)	0.783 µM (active)	1.05 µM (active)	0.7 µM (active)
NCCC(=O)N[C@@H](Cc1cc(O)c(O)c(SCC(NC(=O)CC[C@H](N)C(=O)O)C(=O)NCC(=O)O)c1)C(=O)O (stereo partly drawn)	> 50 µM (inactive)	> 50 µM (inactive)	> 50 µM (inactive)	> 50 µM (inactive)				> 50 µM (inactive)	> 50 µM (inactive)	> 50 µM (inactive)	> 50 µM (inactive)	> 50 µM (inactive)	> 50 µM (inactive)	> 50 µM (inactive)	> 50 µM (inactive)	> 50 µM (inactive)	> 50 µM (inactive)	> 50 µM (inactive)	> 50 µM (inactive)	> 50 µM (inactive)
CCOC(=O)C1(C)CCc2sc(N)c(C#N)c21 (stereo not drawn)	> 100 µM (inactive)	> 100 µM (inactive)	> 100 µM (inactive)	> 100 µM (inactive)	> 100 µM (inactive)	> 100 µM (inactive)	> 100 µM (inactive)	> 100 µM (inactive)	> 100 µM (inactive)	> 100 µM (inactive)	> 100 µM (inactive)	> 100 µM (inactive)			> 100 µM (inactive)	> 100 µM (inactive)	> 100 µM (inactive)	> 100 µM (inactive)	> 100 µM (inactive)	> 100 µM (inactive)
COc1cc(COC(=O)N2CSCC2C(=O)O)c([N+](=O)[O-])cc1OC (stereo not drawn)	> 100 µM (inactive)		> 100 µM (inactive)	> 100 µM (inactive)	> 100 µM (inactive)	> 100 µM (inactive)	> 100 µM (inactive)	> 100 µM (inactive)	> 100 µM (inactive)	> 100 µM (inactive)	> 100 µM (inactive)	> 100 µM (inactive)		> 100 µM (inactive)	> 100 µM (inactive)	> 100 µM (inactive)		> 100 µM (inactive)	> 100 µM (inactive)	
OC(CC(c1ccccc1)c1ccc(Cl)cc1)c1ccc(Cl)cc1 (stereo not drawn)	34.1 µM (inactive)	25.8 µM (inactive)	37.8 µM (inactive)	27.1 µM (inactive)	36.8 µM (inactive)	24.9 µM (inactive)	48.1 µM (inactive)	37.3 µM (inactive)	28.4 µM (inactive)	29 µM (inactive)	29.7 µM (inactive)	30.1 µM (inactive)	25.1 µM (inactive)	33.5 µM (inactive)	34.9 µM (inactive)	26.9 µM (inactive)	24 µM (inactive)	45.2 µM (inactive)	29.4 µM (inactive)	
CNC(=O)c1nn[nH]c1Sc1c([N+](=O)[O-])ncn1C	> 100 µM (inactive)	> 100 µM (inactive)	> 100 µM (inactive)	> 100 µM (inactive)	> 100 µM (inactive)		> 100 µM (inactive)	> 100 µM (inactive)	> 100 µM (inactive)		> 100 µM (inactive)	> 100 µM (inactive)	> 100 µM (inactive)	> 100 µM (inactive)	> 100 µM (inactive)		> 100 µM (inactive)	> 100 µM (inactive)	> 100 µM (inactive)	> 100 µM (inactive)
COC(=O)/C=C1\C(CO[Si](C)(C)C(C)(C)C)OC(n2ccc(=O)[nH]c2=O)C1O (stereo not drawn)	6.04 µM (inactive)	17.5 µM (inactive)	6.35 µM (inactive)	12.6 µM (inactive)	6.27 µM (inactive)			17.5 µM (inactive)	4.91 µM (inactive)	7.67 µM (inactive)	7.08 µM (inactive)	5.9 µM (inactive)		10.4 µM (inactive)	3.47 µM (inactive)	6.07 µM (inactive)	6.25 µM (inactive)	18.5 µM (inactive)	4.73 µM (inactive)	34.5 µM (inactive)
CCCCOC(=O)c1cc(C(=CCC[C@H]2CC[C@@]3(C)[C@@H](CC[C@@H]4[C@@H]3CC[C@]3(C)[C@@H](C(C)CCCC(C)C)CC[C@@H]43)C2)c2cc(Cl)c(O)c(C(=O)OCCCC)c2)cc(Cl)c1O (stereo partly drawn)	> 50 µM (inactive)	> 50 µM (inactive)			> 50 µM (inactive)	> 50 µM (inactive)	> 50 µM (inactive)			> 50 µM (inactive)	> 50 µM (inactive)	> 50 µM (inactive)		> 50 µM (inactive)	> 50 µM (inactive)	> 50 µM (inactive)	> 50 µM (inactive)	> 50 µM (inactive)		> 50 µM (inactive)
